Where “and” joins values, the source holds several entries; their conditions need not be identical. Identical values can stand only once.
Test system: subcutaneous SW1222 xenografts (A33 antigen-expressing human colorectal carcinoma)
Assay: Pretargeted biodistribution with huA33-TCO and ^64Cu-tetrazine radioligand
Format: in vivo, athymic nude mice
Experimental: Female athymic nude mice bearing subcutaneous SW1222 (right shoulder) xenografts (100-150 mm^3, 18-21 days post-inoculation) were administered 100 μg (0.66 nmol) huA33-TCO (in 200 μL 0.9% sterile saline) via intravenous tail vein injection. […] The specific activity of the radiotracer was adjusted using cold ^natCu-Tz-SarAr such that the molar ratio of Tzinjected:huA^33injected=1:1. Animals (n=4 per group) were euthanized by CO2(g) asphyxiation at 1, 4, 12, and 24 h after injection. After asphyxiation, 13 tissues were removed, rinsed in water, dried in air for 5 min, weighed, and counted in a gamma counter calibrated for ^64Cu. Counts were converted into activity using a calibration curve generated from known standards. Count data were background- and decay-corrected to the time of injection, and the percent injected dose per gram (% ID/g) for each tissue sample was calculated by normalization to the total activity injected. Contents within the stomach, small intestine, and large intestine were not removed for the measurements.
Contents within the stomach, small intestine, and large intestine were not removed for the measurements. […] Zeglis, B. M. et al. “A pretargeted PET imaging strategy based on bioorthogonal Diels-Alder click chemistry.” Journal of Nuclear Medicine. 54, 1389-1396 (2013). ©2013 by the Society of Nuclear Medicine and Molecular Imaging, Inc.
Zeglis, B. M. et al. “A pretargeted PET imaging strategy based on bioorthogonal Diels-Alder click chemistry.” Journal of Nuclear Medicine. 54, 1389-1396 (2013). ©2013 by the Society of Nuclear Medicine and Molecular Imaging, Inc.
(§1) Female athymic nude mice bearing subcutaneous SW1222 (right shoulder) xenografts (100-150 mm^3, 18-21 days post-inoculation) were administered 100 μg (0.66 nmol) huA33-TCO (in 200 μL 0.9% sterile saline) via intravenous tail vein injection. After an accumulation interval of 48 h, the same mice were then administered ^64Cu-Tz-SarAr (300-350 μCi in 200 μL 0.9% sterile saline) via intravenous tail vein injection (t=0). The specific activity of the radiotracer was adjusted using cold ^natCu-Tz-SarAr such that the molar ratio of Tzinjected:huA^33injected=1:1. Animals (n=4 per group) were euthanized by CO2(g) asphyxiation at 1, 4, 12, and 24 h after injection. After asphyxiation, tissues were removed, rinsed in water, dried in air for 5 min, weighed, and counted in a gamma counter calibrated for ^64Cu. Counts were converted into activity using a calibration curve generated from known standards. Count data were background- and decay-corrected to the time of injection, and the percent injected dose per gram (% ID/g) for each tissue sample was calculated by normalization to the total activity injected. Contents within the stomach, small intestine, and large intestine were not removed for the measurements.
as §1, with “120” for “48”, “Contents within the stomach, small intestine, and large intestine were not removed for the measurements.” left out

[1] = 48 h accumulation interval, 12 h p.i.
[2] = 48 h accumulation interval, 24 h p.i.
[3] = 120 h accumulation interval, 1 h p.i.
[4] = 120 h accumulation interval, 4 h p.i.
[5] = 120 h accumulation interval, 12 h p.i.
[6] = 120 h accumulation interval, 24 h p.i.

NC12CNCCNCC(NCc3ccc(CNC(=O)CCCC(=O)NCc4ccc(-c5nncnn5)cc4)cc3)(CNCCNC1)CNCCNC2.[64Cu+2] [^64Cu-Tz-SarAr]
Blood activity concentration [1]: 1.81 ± 0.54 % ID/g
Bone activity concentration [1]: 0.3 ± 0.07 % ID/g
Heart activity concentration [1]: 0.88 ± 0.33 % ID/g
Kidney activity concentration [1]: 2.04 ± 0.36 % ID/g
Large Intestine activity concentration [1]: 0.22 ± 0.08 % ID/g
Liver activity concentration [1]: 1.08 ± 0.32 % ID/g
Lung activity concentration [1]: 1.00 ± 0.18 % ID/g
Muscle activity concentration [1]: 0.15 ± 0.02 % ID/g
Small Intestine activity concentration [1]: 0.3 ± 0.08 % ID/g
Spleen activity concentration [1]: 0.56 ± 0.11 % ID/g
Stomach activity concentration [1]: 0.12 ± 0.04 % ID/g
Tumor activity concentration [1]: 4.94 ± 1.12 % ID/g
Tumor/Blood activity concentration ratio [1]: 2.72 ± 1.03
Tumor/Bone activity concentration ratio [1]: 16.24 ± 5.16
Tumor/Heart activity concentration ratio [1]: 5.62 ± 2.47
Tumor/Kidney activity concentration ratio [1]: 2.42 ± 0.7
Tumor/Large Intestine activity concentration ratio [1]: 22.66 ± 10.19
Tumor/Liver activity concentration ratio [1]: 4.58 ± 1.69
Tumor/Lung activity concentration ratio [1]: 4.94 ± 1.45
Tumor/Muscle activity concentration ratio [1]: 33.88 ± 9.31
Tumor/Small Intestine activity concentration ratio [1]: 16.47 ± 5.62
Tumor/Spleen activity concentration ratio [1]: 8.75 ± 2.61
Tumor/Stomach activity concentration ratio [1]: 41.88 ± 18.35
Blood activity concentration [2]: 0.92 ± 0.31 % ID/g
Bone activity concentration [2]: 0.18 ± 0.05 % ID/g
Heart activity concentration [2]: 0.45 ± 0.08 % ID/g
Kidney activity concentration [2]: 1.47 ± 0.43 % ID/g
Large Intestine activity concentration [2]: 0.16 ± 0.03 % ID/g
Liver activity concentration [2]: 1.28 ± 0.33 % ID/g
Lung activity concentration [2]: 1.05 ± 0.51 % ID/g
Muscle activity concentration [2]: 0.11 ± 0.04 % ID/g
Small Intestine activity concentration [2]: 0.22 ± 0.07 % ID/g
Spleen activity concentration [2]: 0.5 ± 0.1 % ID/g
Stomach activity concentration [2]: 0.15 ± 0.03 % ID/g
Tumor activity concentration [2]: 4.85 ± 0.67 % ID/g
Tumor/Blood activity concentration ratio [2]: 5.27±1.92
Tumor/Bone activity concentration ratio [2]: 26.55 ± 7.58
Tumor/Heart activity concentration ratio [2]: 10.9 ± 2.55
Tumor/Kidney activity concentration ratio [2]: 3.31 ± 1.07
Tumor/Large Intestine activity concentration ratio [2]: 29.58 ± 6.11
Tumor/Liver activity concentration ratio [2]: 3.8 ± 1.11
Tumor/Lung activity concentration ratio [2]: 4.61 ± 2.32
Tumor/Muscle activity concentration ratio [2]: 44.18 ± 17.61
Tumor/Small Intestine activity concentration ratio [2]: 21.72 ± 7.59
Tumor/Spleen activity concentration ratio [2]: 9.8 ± 2.47
Tumor/Stomach activity concentration ratio [2]: 32.81 ± 8.37
Blood activity concentration [3]: 1.39 ± 0.19 % ID/g
Bone activity concentration [3]: 0.21 ± 0.03 % ID/g
Heart activity concentration [3]: 0.52 ± 0.06 % ID/g
Kidney activity concentration [3]: 1.80 ± 0.12 % ID/g
Large Intestine activity concentration [3]: 0.29 ± 0.16 % ID/g
Liver activity concentration [3]: 1.65 ± 0.07 % ID/g
Lung activity concentration [3]: 1.41 ± 0.21 % ID/g
Muscle activity concentration [3]: 0.20 ± 0.03 % ID/g
Small Intestine activity concentration [3]: 0.34 ± 0.03 % ID/g
Spleen activity concentration [3]: 0.60 ± 0.13 % ID/g
Stomach activity concentration [3]: 0.32 ± 0.13 % ID/g
Tumor activity concentration [3]: 3.61 ± 0.45 % ID/g
Tumor/Blood activity concentration ratio [3]: 2.61 ± 0.48
Tumor/Bone activity concentration ratio [3]: 17.27 ± 3.03
Tumor/Heart activity concentration ratio [3]: 7.00 ± 1.22
Tumor/Kidney activity concentration ratio [3]: 2.01 ± 0.29
Tumor/Large Intestine activity concentration ratio [3]: 12.39 ± 7.14
Tumor/Liver activity concentration ratio [3]: 2.19 ± 0.29
Tumor/Lung activity concentration ratio [3]: 2.55 ± 0.49
Tumor/Muscle activity concentration ratio [3]: 18.41 ± 3.47
Tumor/Small Intestine activity concentration ratio [3]: 10.53 ± 1.58
Tumor/Spleen activity concentration ratio [3]: 6.02 ± 1.46
Tumor/Stomach activity concentration ratio [3]: 11.37 ± 4.88
Blood activity concentration [4]: 1.05±0.29 % ID/g
Bone activity concentration [4]: 0.16 ± 0.04 % ID/g
Heart activity concentration [4]: 0.43 ± 0.11 % ID/g
Kidney activity concentration [4]: 2.10 ± 0.20 % ID/g
Large Intestine activity concentration [4]: 0.20 ± 0.13 % ID/g
Liver activity concentration [4]: 1.16 ± 0.39 % ID/g
Lung activity concentration [4]: 0.91 ± 0.22 % ID/g
Muscle activity concentration [4]: 0.11 ± 0.05 % ID/g
Small Intestine activity concentration [4]: 0.22 ± 0.03 % ID/g
Spleen activity concentration [4]: 0.50 ± 0.05 % ID/g
Stomach activity concentration [4]: 0.25 ± 0.12 % ID/g
Tumor activity concentration [4]: 3.6±0.7 % ID/g and 3.55 ± 0.74 % ID/g
Tumor/Blood activity concentration ratio [4]: 3.37 ± 1.16
Tumor/Bone activity concentration ratio [4]: 21.53 ± 7.14
Tumor/Heart activity concentration ratio [4]: 8.24 ± 2.71
Tumor/Kidney activity concentration ratio [4]: 1.69 ± 0.39
Tumor/Large Intestine activity concentration ratio [4]: 17.82 ± 12.22
Tumor/Liver activity concentration ratio [4]: 3.06 ± 1.2
Tumor/Lung activity concentration ratio [4]: 3.89 ± 1.23
Tumor/Muscle activity concentration ratio [4]: 32.58 ± 16.17
Tumor/Small Intestine activity concentration ratio [4]: 16.22 ± 3.91
Tumor/Spleen activity concentration ratio [4]: 7.03 ± 1.64
Tumor/Stomach activity concentration ratio [4]: 14.04 ± 7.07
Blood activity concentration [5]: 0.44 ± 0.14 % ID/g
Bone activity concentration [5]: 0.11 ± 0.04 % ID/g
Heart activity concentration [5]: 0.34 ± 0.20 % ID/g
Kidney activity concentration [5]: 2.11 ± 0.13 % ID/g
Large Intestine activity concentration [5]: 0.09 ± 0.03 % ID/g
Liver activity concentration [5]: 0.96 ± 0.09 % ID/g
Lung activity concentration [5]: 0.59 ± 0.27 % ID/g
Muscle activity concentration [5]: 0.08 ± 0.04 % ID/g
Small Intestine activity concentration [5]: 0.15 ± 0.07 % ID/g
Spleen activity concentration [5]: 0.34 ± 0.14 % ID/g
Stomach activity concentration [5]: 0.09 ± 0.03 % ID/g
Tumor activity concentration [5]: 3.29 ± 0.40 % ID/g
Tumor/Blood activity concentration ratio [5]: 7.46 ± 2.54
Tumor/Bone activity concentration ratio [5]: 29.07 ± 11.14
Tumor/Heart activity concentration ratio [5]: 9.56 ± 5.64
Tumor/Kidney activity concentration ratio [5]: 1.56 ± 0.21
Tumor/Large Intestine activity concentration ratio [5]: 35.43 ± 12.17
Tumor/Liver activity concentration ratio [5]: 3.43 ± 0.52
Tumor/Lung activity concentration ratio [5]: 5.55 ± 2.62
Tumor/Muscle activity concentration ratio [5]: 38.74 ± 20.11
Tumor/Small Intestine activity concentration ratio [5]: 21.47 ± 9.60
Tumor/Spleen activity concentration ratio [5]: 9.63 ± 4.03
Tumor/Stomach activity concentration ratio [5]: 38.07 ± 12.42
Blood activity concentration [6]: 0.75 ± 0.23 % ID/g
Bone activity concentration [6]: 0.25 ± 0.08 % ID/g
Heart activity concentration [6]: 0.40 ± 0.16 % ID/g
Kidney activity concentration [6]: 1.90 ± 0.17 % ID/g
Large Intestine activity concentration [6]: 0.16 ± 0.04 % ID/g
Liver activity concentration [6]: 1.06 ± 0.16 % ID/g
Lung activity concentration [6]: 0.85 ± 0.29 % ID/g
Muscle activity concentration [6]: 0.14 ± 0.05 % ID/g
Small Intestine activity concentration [6]: 0.17 ± 0.06 % ID/g
Spleen activity concentration [6]: 0.69 ± 0.17 % ID/g
Stomach activity concentration [6]: 0.15 ± 0.08 % ID/g
Tumor activity concentration [6]: 4.34 ± 0.98 % ID/g
Tumor/Blood activity concentration ratio [6]: 5.74±2.17
Tumor/Bone activity concentration ratio [6]: 17.16 ± 6.90
Tumor/Heart activity concentration ratio [6]: 10.76 ± 4.94
Tumor/Kidney activity concentration ratio [6]: 2.29 ± 0.56
Tumor/Large Intestine activity concentration ratio [6]: 26.48 ± 8.29
Tumor/Liver activity concentration ratio [6]: 4.09 ± 1.13
Tumor/Lung activity concentration ratio [6]: 5.09 ± 2.06
Tumor/Muscle activity concentration ratio [6]: 30.39 ± 11.94
Tumor/Small Intestine activity concentration ratio [6]: 25.34 ± 10.4
Tumor/Spleen activity concentration ratio [6]: 6.26 ± 2.09
Tumor/Stomach activity concentration ratio [6]: 29.21 ± 17.97

From patent US11135320B2, “Radioligands for pretargeted pet imaging and methods of their therapeutic use” (priority 2015, dated 2021)
